Source: patent publication US11382918B2, “Methods for treating Huntington's Disease” (PTC Therapeutics, Inc., priority 2017, dated 2022)
Structures can show the parent of a compound that is named as a salt.

System: Endogenous Huntingtin Protein (HTT)
Assay: Endogenous Huntingtin Protein Assay (ELISA-based MSD electrochemiluminescence)
Assay type: cell-based
Settings: Table 1
Summary of the method: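 HTT protein in lysates was measured by electrochemiluminescence on the MSD platform. Rabbit monoclonal 5656S followed by SULFO-TAG anti-rabbit antibody served for detection after overnight 4 °C capture with MAB2166 or the polyglutamine-directed MW1 antibody.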

| SMILES | IC50 |
| --- | --- |
| Cc1ccc2nc(-c3cc(=O)n4cc(N5CCN(C)CC5)ccc4n3)cn2c1 [compound 836, 2-(6-methylimidazo[1,2-a]pyridin-2-yl)-7-(4-methylpiperazin-1-yl)-4H-pyrido[1,2-a]pyrimidin-4-one] | 3000 to 33000 nM |
| Cc1cc(C2CCN(C)CC2)cn2c(=O)cc(-c3ccc4nn(C)cc4c3)nc12 [compound 705, 9-methyl-2-(2-methyl-2H-indazol-5-yl)-7-(1-methylpiperidin-4-yl)-4H-pyrido[1,2-a]pyrimidin-4-one] | 500 to 1000 nM |
| Cc1cc(=O)n2cc(-c3cc(=O)n4cc(N5CCNCC5)ccc4n3)ccc2n1 [compound 837, 2′-methyl-7-(piperazin-1-yl)-4H,4′H-2,7′-bipyrido[1,2-a]pyrimidine-4,4′-dione] | 3000 to 33000 nM |
| Cc1cn2cc(-c3cc(=O)n4cc(N5CCNCC5)ccc4n3)cc(Cl)c2n1 [compound 287, 2-(8-chloro-2-methylimidazo[1,2-a]pyridin-6-yl)-7-(piperazin-1-yl)-4H-pyrido[1,2-a]pyrimidin-4-one] | 100 to 500 nM |
| Cc1cn2cc(-c3cc(=O)n4cc(N5CCNCC5)ccc4n3)nc2cn1 [compound 74, 2-(6-methylimidazo[1,2-a]pyrazin-2-yl)-7-(piperazin-1-yl)-4H-pyrido[1,2-a]pyrimidin-4-one] | 1000 to 3000 nM |
| Cc1cn2cc(-c3cc(=O)n4cc(N5CCNCC5)ccc4n3)cc(CO)c2n1 [compound 674, 2-[8-(hydroxymethyl)-2-methylimidazo[1,2-a]pyridin-6-yl]-7-(piperazin-1-yl)-4H-pyrido[1,2-a]pyrimidin-4-one] | 3000 to 33000 nM |
| Cn1cc(-c2cc(=O)n3cc(N4CCNCC4)ccc3n2)cn1 [compound 192, 2-(1-methyl-1H-pyrazol-4-yl)-7-(piperazin-1-yl)-4H-pyrido[1,2-a]pyrimidin-4-one] | 3000 to 33000 nM |
| CCc1nc(C)cn2nc(-c3cc(=O)n4cc(N5CCNCC5)ccc4n3)cc12 [compound 546, 2-(4-ethyl-6-methylpyrazolo[1,5-a]pyrazin-2-yl)-7-(piperazin-1-yl)-4H-pyrido[1,2-a]pyrimidin-4-one] | 1000 to 3000 nM |
| Cc1cn2nc(-c3cc(=O)n4cc(N5CCN(C)[C@@H](C)C5)ccc4n3)cc2c(C)n1 [compound 258, 7-[(3S)-3,4-dimethylpiperazin-1-yl]-2-(4,6-dimethylpyrazolo[1,5-a]pyrazin-2-yl)-4H-pyrido[1,2-a]pyrimidin-4-one] | 3000 to 33000 nM |
| CN(C)c1ccc(-c2cc(=O)n3cc(C4=CCNCC4)ccc3n2)cn1 [compound 444, 2-[6-(dimethylamino)pyridin-3-yl]-7-(1,2,3,6-tetrahydropyridin-4-yl)-4H-pyrido[1,2-a]pyrimidin-4-one] | 3000 to 33000 nM |
| Cc1nc2ccc(-c3cc(=O)n4cc(N5CCNCC5)ccc4n3)cc2s1 [compound 219, 2-(2-methyl-1,3-benzothiazol-6-yl)-7-(piperazin-1-yl)-4H-pyrido[1,2-a]pyrimidin-4-one] | 3000 to 33000 nM |
| Cc1cn2nc(-c3cc(=O)n4cc(N5CC(CN(C)C)C5)ccc4n3)cc2c(C)n1 [compound 780, 7-{3-[(dimethylamino)methyl]azetidin-1-yl}-2-(4,6-dimethylpyrazolo[1,5-a]pyrazin-2-yl)-4H-pyrido[1,2-a]pyrimidin-4-one] | 1000 to 3000 nM |
| CCc1nc(C)cn2nc(-c3cc(=O)n4cc(C5=CCNCC5)ccc4n3)cc12 [compound 763, 2-(4-ethyl-6-methylpyrazolo[1,5-a]pyrazin-2-yl)-7-(1,2,3,6-tetrahydropyridin-4-yl)-4H-pyrido[1,2-a]pyrimidin-4-one] | 100 to 500 nM |
| O=c1cc(-c2cnn(C3CCCCO3)c2)nc2ccc(N3CCNCC3)cn12 (centres unmarked) [compound 854, 7-(piperazin-1-yl)-2-[1-(tetrahydro-2H-pyran-2-yl)-1H-pyrazol-4-yl]-4H-pyrido[1,2-a]pyrimidin-4-one] | 3000 to 33000 nM |
| Cc1cn2nc(-c3cc(=O)n4cc(C5=CCN(C6CCC6)CC5)ccc4n3)cc2c(C)n1 [compound 356, 7-(1-cyclobutyl-1,2,3,6-tetrahydropyridin-4-yl)-2-(4,6-dimethylpyrazolo[1,5-a]pyrazin-2-yl)-4H-pyrido[1,2-a]pyrimidin-4-one] | 3000 to 33000 nM |
| CCc1cc(-c2cc(=O)n3cc(C4CCNCC4)ccc3n2)cn2cc(C)nc12 [compound 696, 2-(8-ethyl-2-methylimidazo[1,2-a]pyridin-6-yl)-7-(piperidin-4-yl)-4H-pyrido[1,2-a]pyrimidin-4-one] | < 100 nM |
| Cn1cc2cc(-c3cc(=O)n4cc(C5CCNCC5)ccc4n3)ccc2n1 [compound 606, 2-(2-methyl-2H-indazol-5-yl)-7-(piperidin-4-yl)-4H-pyrido[1,2-a]pyrimidin-4-one] | 3000 to 33000 nM |
| CCN1CCC(c2cn3c(=O)cc(-c4ccc5nc(C)cn5c4)nc3cn2)CC1 [compound 580, 7-(1-ethylpiperidin-4-yl)-2-(2-methylimidazo[1,2-a]pyridin-6-yl)-4H-pyrazino[1,2-a]pyrimidin-4-one] | 3000 to 33000 nM |
| CCc1nc(C)cn2nc(-c3cc(=O)n4cc(N5CCN[C@@H](C)C5)ccc4n3)cc12 [compound 635, 2-(4-ethyl-6-methylpyrazolo[1,5-a]pyrazin-2-yl)-7-[(3S)-3-methylpiperazin-1-yl]-4H-pyrido[1,2-a]pyrimidin-4-one] | 1000 to 3000 nM |
| Cc1cn2cc(-c3cc(=O)n4cc(C5CCNCC5)ncc4n3)cc(Cl)c2n1 [compound 587, 2-(8-chloro-2-methylimidazo[1,2-a]pyridin-6-yl)-7-(piperidin-4-yl)-4H-pyrazino[1,2-a]pyrimidin-4-one] | 100 to 500 nM |
| Cc1cc2cc(-c3cc(=O)n4cc(N5CCNCC5)ccc4n3)oc2c(C)n1 [compound 486, 2-(5,7-dimethylfuro[2,3-c]pyridin-2-yl)-7-(piperazin-1-yl)-4H-pyrido[1,2-a]pyrimidin-4-one] | 500 to 1000 nM |
| CCN1CCC(c2cn3c(=O)cc(-c4ccc5nn(C)cc5c4)nc3cn2)CC1 [compound 568, 7-(1-ethylpiperidin-4-yl)-2-(2-methyl-2H-indazol-5-yl)-4H-pyrazino[1,2-a]pyrimidin-4-one] | 1000 to 3000 nM |
| Cc1cc(C2=CC(C)(C)NC(C)(C)C2)cn2c(=O)cc(-c3ccc4nn(C)cc4c3)nc12 [compound 865, 9-methyl-2-(2-methyl-2H-indazol-5-yl)-7-(2,2,6,6-tetramethyl-1,2,3,6-tetrahydropyridin-4-yl)-4H-pyrido[1,2-a]pyrimidin-4-one] | 3000 to 33000 nM |
| Cc1cc(-c2cc(=O)n3cc(C4=CCNCC4)ccc3n2)nc2cnn(C)c12 [compound 860, 2-(1,7-dimethyl-1H-pyrazolo[4,3-b]pyridin-5-yl)-7-(1,2,3,6-tetrahydropyridin-4-yl)-4H-pyrido[1,2-a]pyrimidin-4-one hydrochloride (1:2)] | 3000 to 33000 nM |
| Cc1cn2nc(-c3cc(=O)n4cc(N5CCN(CCO)[C@H](C)C5)cc(C)c4n3)cc2c(C)n1 [compound 673, 2-(4,6-dimethylpyrazolo[1,5-a]pyrazin-2-yl)-7-[(3R)-4-(2-hydroxyethyl)-3-methylpiperazin-1-yl]-9-methyl-4H-pyrido[1,2-a]pyrimidin-4-one] | 3000 to 33000 nM |
| Cc1cn2nc(-c3cc(=O)n4cc(N5CCNC(C(F)(F)F)C5)ccc4n3)cc2c(C)n1 (centres unmarked) [compound 844, 2-(4,6-dimethylpyrazolo[1,5-a]pyrazin-2-yl)-7-[3-(trifluoromethyl)piperazin-1-yl]-4H-pyrido[1,2-a]pyrimidin-4-one] | 3000 to 33000 nM |
